Values quoted from earlier work, collected in patent US20230065004A1, “METHOD FOR IMPROVING COLOUR RETENTION OF DYED KERATINOUS MATERIAL, ESPECIALLY HUMAN HAIR” (Henkel AG & Co. KGaA, priority 2019, published 2023).

Details: 25° C.

Compound | solubility in water
O=C([O-])C1=NN(c2ccc(S(=O)(=O)[O-])cc2)C(=O)C1N=Nc1ccc(S(=O)(=O)[O-])cc1.[Na+].[Na+].[Na+] (stereo not shown) [Acid Yellow 23, trisodium salt of 4,5-dihydro-5-oxo-1-(4-sulfophenyl)-4-((4-sulfophenyl)azo)-1H-pyrazole-3-carboxylic acid] | highly soluble
CCN(Cc1cccc(S(=O)(=O)[O-])c1)c1ccc(C(=C2C=CC(=[N+](CC)Cc3cccc(S(=O)(=O)[O-])c3)C=C2)c2ccccc2S(=O)(=O)[O-])cc1.[Na+].[Na+] [Acid Blue 9] | more than 20 wt. %
Nc1cc(S(=O)(=O)[O-])cc2cc(S(=O)(=O)[O-])c(N=Nc3ccccc3)c(O)c12.[Na+].[Na+] [Acid Red 33, dinatrium salt of 5-amino-4-hydroxy-3-(phenylazo)-naphthalene-2,7-disulphonate] | about 2.5 g/L
O=S(=O)([O-])c1ccc(N=Nc2c(O)ccc3ccccc23)cc1.[Na+] [Acid Orange 7, sodium salt of 4-[(2-hydroxy-1-naphthyl)azo]benzene sulphonate] | more than 7 g/L
